Results from patent publication US20240199605A1, “SMALL MOLECULAR INHIBITORS OF NF-kB INDUCING KINASE” (Janssen Pharmaceutica NV, priority 2019, published 2024).

Tests used:
[1] = target: recombinant human NF-kappaB-inducing kinase (NIK/MAP3K14) (Homo sapiens (Human), UniProt Q99558); experiment: Inhibition of auto-phosphorylation of recombinant human NIK/MAP3K14 (AlphaScreen); assay type: biochemical; conditions: NIK auto-phosphorylation, 5 μM ATP, 1 nM NIK, 2 h at 25° C.; average of values
In short: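 GST-tagged NIK (1 nM) auto-phosphorylated with 5 μM ATP for 2 h at 25° C. in 50 mM Tris pH 7.5, 5 mM MgCl2, 1 mM EGTA, 1 mM DTT, 0.1 mM Na3VO4, 0.01% Tween 20 (0.7% DMSO). Detected by AlphaScreen via anti-phospho-IKK Ser176/180 antibody; IC50 from sigmoidal fit of % inhibition versus log concentration.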

[2] = test system: p-IKKα levels in L363 (NIK translocated multiple myeloma) cells; experiment: Effect of compounds on p-IKKα levels in L363 cells (AlphaLISA SureFire Ultra); assay type: cell-based, human; conditions: Homo sapiens, L-363, 6 h, BAFF stimulated, MG132, 6 h, average of values, read-out: Assay 2 IC50
In short: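 Inhibition of p-IKKα (Ser176/180) read by AlphaLISA after 6 h, 37 °C compound exposure (11-point 1:3 series, 0.3% DMSO) of L363 cells pre-incubated overnight ± 250 ng/ml BAFF and plated ± BAFF ± 10 μM MG132. Normalised to BAFF/MG132/DMSO and unstimulated controls; IC50 by sigmoidal fitting, duplicates.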

Chain of recombinant human NF-kappaB-inducing kinase (NIK/MAP3K14) (Q99558 whole entry): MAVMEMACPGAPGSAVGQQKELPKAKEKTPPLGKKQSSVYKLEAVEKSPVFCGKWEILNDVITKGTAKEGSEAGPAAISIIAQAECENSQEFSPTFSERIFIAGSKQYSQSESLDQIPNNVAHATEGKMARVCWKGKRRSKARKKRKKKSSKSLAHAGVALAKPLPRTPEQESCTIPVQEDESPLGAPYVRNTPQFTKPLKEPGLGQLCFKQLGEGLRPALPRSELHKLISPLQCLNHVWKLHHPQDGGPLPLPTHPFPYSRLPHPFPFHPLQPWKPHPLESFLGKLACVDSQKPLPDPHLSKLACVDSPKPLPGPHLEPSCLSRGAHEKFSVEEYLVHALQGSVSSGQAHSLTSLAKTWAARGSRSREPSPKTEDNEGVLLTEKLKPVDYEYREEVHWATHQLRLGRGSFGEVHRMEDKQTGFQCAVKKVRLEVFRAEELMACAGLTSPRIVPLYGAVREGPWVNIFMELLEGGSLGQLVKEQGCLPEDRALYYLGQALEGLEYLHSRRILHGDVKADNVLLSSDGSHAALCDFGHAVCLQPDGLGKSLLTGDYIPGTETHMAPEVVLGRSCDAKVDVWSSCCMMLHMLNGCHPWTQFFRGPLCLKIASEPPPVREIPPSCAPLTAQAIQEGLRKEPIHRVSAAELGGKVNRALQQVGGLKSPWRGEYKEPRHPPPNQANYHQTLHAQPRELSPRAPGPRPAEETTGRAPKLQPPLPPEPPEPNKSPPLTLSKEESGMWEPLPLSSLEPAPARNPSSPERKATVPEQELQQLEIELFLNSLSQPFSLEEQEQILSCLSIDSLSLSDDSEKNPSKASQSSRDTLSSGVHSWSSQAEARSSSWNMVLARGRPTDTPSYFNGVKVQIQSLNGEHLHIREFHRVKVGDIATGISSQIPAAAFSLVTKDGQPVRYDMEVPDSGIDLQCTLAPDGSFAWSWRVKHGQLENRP

SMILES	IC50 [1]	IC50 [2]
Cc1nc(N)c2nc(-c3cccc(C#C[C@]4(O)CCCN(C)C4=O)c3)ccc2n1 [Example 187, (R)-3-((3-(4-Amino-2-methylpyrido[3,2-d]pyrimidin-6-yl)phenyl)ethynyl)-3-hydroxy-1-methylpiperidin-2-one]	3.8 nM	190 nM
CN1CC[C@@](O)(C#Cc2cccc(-c3nc4c(N)ncnc4n3C)c2)C1=O [Example 143, (R)-3-((3-(6-Amino-9-methyl-9H-purin-8-yl)phenyl)ethynyl)-3-hydroxy-1-methylpyrrolidin-2-one]	420 nM	> 5000 nM
CN1CC[C@@](O)(C#Cc2cccc(-c3ccc4ncnc(C(F)(F)F)c4n3)c2)C1=O [Example 278, (R)-3-Hydroxy-1-methyl-3-((3-(4-(trifluoromethyl)pyrido[3,2-d]pyrimidin-6-yl)phenyl)ethynyl)pyrrolidin-2-one]	170 nM	> 5000 nM
Cc1nc(N)c2nc(-c3cccc(C#C[C@@](C)(O)c4ncc(C)s4)c3)ccc2n1 [Example 167, (R)-4-(3-(4-Amino-2-methylpyrido[3,2-d]pyrimidin-6-yl)phenyl)-2-(5-methylthiazol-2-yl)but-3-yn-2-ol]	12 nM	3470 nM
CN1CC[C@@](O)(C#Cc2cccc(-c3ncc4cc[nH]c(=O)c4n3)c2)C1=O [Example 30, (R)-2-[3-[2-(3-Hydroxy-1-methyl-2-oxo-pyrrolidin-3-yl)ethynyl]phenyl]-7H-pyrido[3,4-d]pyrimidin-8-one]	60 nM	1190 nM
Cc1nc(N)c2nc(-c3cccc(C#C[C@@](C)(O)c4nc(C(F)(F)F)cs4)c3)ccc2n1 [Example 192, (R)-4-(3-(4-Amino-2-methylpyrido[3,2-d]pyrimidin-6-yl)phenyl)-2-(4-(trifluoromethyl)thiazol-2-yl)but-3-yn-2-ol]	1110 nM	> 5000 nM
CN1CC[C@@](O)(C#Cc2cccc(-c3ccc4nccc(N5CCC5)c4c3)c2)C1=O [Example 235, (R)-3-((3-(4-(Azetidin-1-yl)quinolin-6-yl)phenyl)ethynyl)-3-hydroxy-1-methylpyrrolidin-2-one]	2950 nM	> 5000 nM
Cc1ccc(C#CC2(O)CCCC2)cc1-c1nc2c(N)ncnc2s1 [Example 185, 1-[2-[3-(7-Aminothiazolo[5,4-d]pyrimidin-2-yl)-4-methyl-phenyl]ethynyl]cyclopentanol]	11 nM	1520 nM

The next molecules have a lower IC50 [1] than those just listed; values first:

IC50 [1]	IC50 [2]	SMILES
≤ 0.5 nM	5.5 nM	Cc1nc(-c2cccc(C#C[C@]3(O)CCn4ccnc43)c2)nc2c(N)nccc12 [Example 84, (R)-7-((3-(8-Amino-4-methylpyrido[3,4-d]pyrimidin-2-yl)phenyl)ethynyl)-6,7-dihydro-5H-pyrrolo[1,2-a]imidazol-7-ol]
1.4 nM	140 nM	Cc1cc2cnc(-c3cccc(C#C[C@]4(O)CCc5cccnc54)c3)nc2c(N)n1 [Example 63, (R)-7-((3-(8-amino-6-methylpyrido[3,4-d]pyrimidin-2-yl)phenyl)ethynyl)-6,7-dihydro-5H-cyclopenta[b]pyridin-7-ol]
1.5 nM	69 nM	CN1CC[C@@](O)(C#Cc2cccc(-c3ccc4ncnc(N5CC(F)C5)c4n3)c2)C1=O [Example 239, (R)-3-((3-(4-(3-Fluoroazetidin-1-yl)pyrido[3,2-d]pyrimidin-6-yl)phenyl)ethynyl)-3-hydroxy-1-methylpyrrolidin-2-one]
≤ 0.5 nM	14 nM	CN1CC[C@@](O)(C#Cc2cccc(-c3ncc4c(-c5ccc(C(F)(F)F)nc5)cnc(N)c4n3)c2)C1=O [Example 147, (R)-3-[2-[3-[8-Amino-5-[6-(trifluoromethyl)-3-pyridyl]pyrido[3,4-d]pyrimidin-2-yl]phenyl]ethynyl]-3-hydroxy-1-methyl-pyrrolidin-2-one]
2.2 nM	> 5000 nM	CN1CC[C@@](O)(C#Cc2cccc(-c3ccc4nc(O)nc(N)c4n3)c2)C1=O [Example 211, (R)-3-((3-(4-Amino-2-hydroxypyrido[3,2-d]pyrimidin-6-yl)phenyl)ethynyl)-3-hydroxy-1-methylpyrrolidin-2-one]
